Measured values published in patent US20060128792A1, “Deguelin as a chemopreventive agent for lung cancer” (priority 2002, published 2006).

Assays:
[1] = test system: premalignant (1799, 1198) and malignant (1170) HBE cell lines; test: MTT assay, growth of premalignant and malignant HBE cell lines; type: cell-based; conditions: premalignant and malignant HBE cells; unpublished data
From the text: Cells and Cell Cultures. […] Tumors developed 6 months later. […] (Klein-Szanto et al., 1992).

[2] = test system: NHBE; test: MTT assay, growth inhibition / viability of normal HBE cells
Procedure: Cells and Cell Cultures. […] Normal HBE (NHBE) cells were purchased from Clontech (Palo Alto, Calif.). […] Cells were grown on tissue culture plasticware (Falcon; Bector, Dickinson, Bedford, Mass.) at 37° C. in a humidified atmosphere with 5% C02. For the analyses of growth inhibition, cell cycle, and induction of apoptosis by deguelin, NHBE cells, HBE cell lines, and squamous HBE cells were cultured in KSFM (Life Technologies) containing 2 μg/ml of EGF and bovine pitutary extract.
Cell Treatment with Deguelin and Determination of Growth Inhibition. To measure the effects of deguelin on cell proliferation, NHBE, 1799 cells, 1198 cells, and 1170 cells were transferred onto 96-well plates at densities ranging from 2×10^3 to 4×10^3 cells/well. After 1 day, the cells were changed to the fresh medium containing various concentrations of deguelin dissolved in DMSO (final concentration, 0.1%). Control cultures received 0.1% dimethyl sulfoxide (DMSO) as did the deguelin-treated cultures. […] After 1 day of infection, cells were treated with 10^−7 M or 10^−6 M of deguelin, or 0.1% DMSO as a control, and then incubated for 2 days. […] Six replicate wells were used for each analysis.

[3] = test system: genes controlled by the TPA response element (TRE); conditions: cited from earlier work

Compound	concentration required to induce detectable cell growth inhibition [1]	cytotoxicity on NHBE cells [2]	concentration inhibiting PMA-induction of TRE-controlled genes [3]
O=c1cc(N2CCOCC2)oc2c(-c3ccccc3)cccc12 [LY294002, reference compound]	more than 10 μM	significant cytotoxicity	–
N#CC(=C(N)Sc1ccccc1N)C(C#N)=C(N)Sc1ccccc1N [U0126, 1,4diamino-2,3-dicyano-1,4 bis[2-aminophenylthio]butadiene]	–	–	1 to 2 µM
